Assay results reported in paper PMC7003846, “Effects of the ventilatory stimulant, doxapram on human TASK‐3 (KCNK9, K2P9.1) channels and TASK‐1 (KCNK3, K2P3.1) channels” (Acta Physiologica (Oxford, England), 2019).
One block for each compound: values may come before it.

Assays:
[1] = test system: rat TASK-1/TASK-3 heterodimeric channels; settings: cloned rat channels; cited from earlier work
human TASK-2 = molecular target: T1, human TASK-2 (Homo sapiens, UniProt O95279); experiment: Whole-cell patch clamp on tsA201 cells expressing cloned human TASK-2; assay type: cell-based; settings: acute application, read-out: inhibition of WT TASK-2 current
T1 construct: expressed in transfected cells; host or cells: tsA201 (modified HEK293), transient transfection, pcDNA3.1+
T1 sequence (O95279 1-499): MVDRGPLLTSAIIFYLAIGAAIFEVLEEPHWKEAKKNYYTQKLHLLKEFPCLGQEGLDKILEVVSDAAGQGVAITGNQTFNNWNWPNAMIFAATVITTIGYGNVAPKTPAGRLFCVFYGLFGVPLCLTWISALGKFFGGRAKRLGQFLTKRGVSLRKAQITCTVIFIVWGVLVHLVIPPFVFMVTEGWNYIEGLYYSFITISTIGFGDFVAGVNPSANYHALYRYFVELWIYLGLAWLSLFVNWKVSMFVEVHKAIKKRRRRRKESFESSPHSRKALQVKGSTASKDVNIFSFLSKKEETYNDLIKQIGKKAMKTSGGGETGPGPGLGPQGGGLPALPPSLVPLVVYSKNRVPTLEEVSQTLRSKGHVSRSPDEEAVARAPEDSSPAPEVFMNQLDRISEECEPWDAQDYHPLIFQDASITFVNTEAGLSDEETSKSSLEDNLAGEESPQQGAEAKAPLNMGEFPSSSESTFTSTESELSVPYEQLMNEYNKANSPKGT
Experimental: (§1) Murine (mur) wild‐type (WT) TASK‐1 (KCNK3, Genbank^TM DQ185133) and WT murTASK‐3 (KCNK9, Genbank^TM AH009585.2) cDNA were cloned into pCS2^+ vector and were a kind gift from William Wisden (Imperial College, UK). Human WT TASK‐1 (Genbank^TM AF006823.1), WT TASK‐3 (Genbank^TM AF212829) and WT TASK‐2 (KCNK5, Genbank^TM AF084830.1) cDNA’s, were cloned into pcDNA3.1^+ vector (Invitrogen) and were a kind gift from Helen Meadows (GlaxoSmithKline).
(§2) All experiments were performed using a modified human embryonic kidney 293 cell line, tsA201 (ECACC; Sigma‐Aldrich), prepared and maintained as previously described.54 […]
(§3) Currents were recorded from tsA201 cells transiently transfected with the channel of interest using whole‐cell patch clamp in a voltage clamp configuration and a step‐ramp voltage protocol as previously described.54 Briefly, all experiments were conducted at room temperature (20‐24°C) using an external solution composed of 145 mM of NaCl, 2.5 mM of KCL, 3 mM of MgCl2, 1 mM of CaCl2 and 10 mM of HEPES (pH 7.4, using NaOH) and an intracellular pipette solution composed of 150 mM of KCL, 3 mM of MgCl2, 5 mM of EGTA and 10 mM of HEPES (pH adjusted to 7.4 with KOH). […] Currents were recorded using an Axopatch 1D patch clamp amplifier (Molecular Devices), filtered at 0.3 kHz, digitized at 1 kHz.
(§4) For analysis of outward current, we measured the current difference between the −80 and −40 mV. […]

[2] = test system: rat TASK-3 homodimeric channels; settings: cloned rat channels; cited from earlier work
[3] = test system: rat TASK-1 homodimeric channels; settings: cited from earlier work
murTASK-1 = molecular target: T2, murTASK-1 (Mus musculus, UniProt O35111); experiment: Whole-cell patch clamp on tsA201 cells expressing cloned mouse TASK-1; assay type: cell-based
T2 construct: expressed in transfected cells; host or cells: tsA201 (modified HEK293), transient transfection, pCS2+
Experimental: as §1
(§5) All experiments were performed using a modified human embryonic kidney 293 cell line, tsA201 (ECACC; Sigma‐Aldrich), prepared and maintained as previously described.54
(§6) For the electrophysiological experiments, cells were transiently transfected using a modified calcium phosphate protocol, following a process as previously described.54 Vectors cloned with the gene of interest and a similar vector encoding the cDNA for GFP were added to each well at a concentration of 0.5 µg per well, with the exception being for murTASK‐3, where 0.125 µg per well was used.
(§7) Currents were recorded from tsA201 cells transiently transfected with the channel of interest using whole‐cell patch clamp in a voltage clamp configuration and a step‐ramp voltage protocol as previously described.54 Briefly, all experiments were conducted at room temperature (20‐24°C) using an external solution composed of 145 mM of NaCl, 2.5 mM of KCL, 3 mM of MgCl2, 1 mM of CaCl2 and 10 mM of HEPES (pH 7.4, using NaOH) and an intracellular pipette solution composed of 150 mM of KCL, 3 mM of MgCl2, 5 mM of EGTA and 10 mM of HEPES (pH adjusted to 7.4 with KOH). External solution and modulatory compounds were superfused at a rate of 4‐5 mL min^−1. Currents were recorded using an Axopatch 1D patch clamp amplifier (Molecular Devices), filtered at 0.3 kHz, digitized at 1 kHz.
(§8) For analysis of outward current, we measured the current difference between the −80 and −40 mV. The current‐voltage graphs were obtained from the ramp change in voltage between −120 and +20 mV. For each cell, the current amplitude (pA) was normalized to the cell capacitance (pF). The currents obtained were analysed using pCLAMP 10.2 software (Molecular Devices), Microsoft Excel and GraphPad Prism 6 or 7 software. Data were expressed as the mean ± 95% Confidence Intervals (CI), and n represents the number of individual cells. For EC50 calculations, concentration‐response curves were fitted using the Hill equation. Statistical analysis used were one‐way ANOVA with a post‐hoc Dunnett's test or an unpaired/paired Student's t test. Data were considered statistically different if P < .05. The data and statistical analysis comply with the recommendations on experimental design and analysis in pharmacology.55

TASK-3_V242D = molecular target: T3, TASK-3_V242D (Homo sapiens, UniProt Q9NPC2, V242D); experiment: Whole-cell patch clamp, human TASK-3 pore mutant V242D; assay type: cell-based; settings: 10 µM (Figure 6C); read-out: percentage inhibition of TASK-3_V242D
T3 construct: expressed in transfected cells; host or cells: tsA201 (modified HEK293), transient transfection
From the text: as §1
(§9) Point mutations (L122D, G236D, L239D, V242D or a stop codon) were introduced by site‐directed mutagenesis into TASK‐3 cDNA using the Quikchange kit (Stratagene) as previously described.54 […]
as §3, with “kHz. […]” for “kHz.”

hTASK-3_Δ250 = molecular target: T4, hTASK-3_Δ250 (Homo sapiens, UniProt Q9NPC2); experiment: Whole-cell patch clamp, C-terminally truncated human TASK-3; assay type: cell-based
T4 construct: truncating the channel to remove the C‐terminal of the human TASK‐3 channel (hTASK‐3_Δ250); expressed in transfected cells; host or cells: tsA201 (modified HEK293), transient transfection
From the text: as §1, §9
as §3, with “kHz. […]” for “kHz.”

human TASK-1 = molecular target: T5, human TASK-1 (Homo sapiens, UniProt O14649); experiment: Whole-cell patch clamp on tsA201 cells expressing cloned human TASK-1; assay type: cell-based
T5 construct: expressed in transfected cells; host or cells: tsA201 (modified HEK293), transient transfection, pcDNA3.1+
Experimental: as §1, §5, §6, §7, §8

murTASK-3 = molecular target: T6, murTASK-3 (Mus musculus, UniProt Q3LS21); experiment: Whole-cell patch clamp on tsA201 cells expressing cloned mouse TASK-3; assay type: cell-based
T6 construct: expressed in transfected cells; host or cells: tsA201 (modified HEK293), transient transfection, pCS2+
Experimental: as §1, §5, §6, §7, §8

human TASK-3 = molecular target: T7, human TASK-3 (Homo sapiens, UniProt Q9NPC2); experiment: Whole-cell patch clamp on tsA201 cells expressing cloned human TASK-3; assay type: cell-based
T7 construct: expressed in transfected cells; host or cells: tsA201 (modified HEK293), transient transfection, pcDNA3.1+
Experimental: as §1, §5, §6, §7, §8

TASK-3_G236D = molecular target: T8, TASK-3_G236D (Homo sapiens, UniProt Q9NPC2, G236D); experiment: Whole-cell patch clamp, human TASK-3 pore mutant G236D; assay type: cell-based; settings: 10 µM (Figure 6C); read-out: percentage inhibition of TASK-3_G236D
T8 construct: expressed in transfected cells; host or cells: tsA201 (modified HEK293), transient transfection
From the text: as §1, §9
as §3, with “kHz. […]” for “kHz.”

[4] = molecular target: T9, murTASK-1/murTASK-3 heterodimer channels (Mus musculus, UniProt O35111+Q3LS21); experiment: Whole-cell patch clamp, forced heterodimer murTASK-1/murTASK-3; assay type: cell-based
T9 construct: expressed in transfected cells; host or cells: tsA201 (modified HEK293), transient transfection
Experimental: as §1, §2, §3, §4

murT3_Δ250 = molecular target: T10, murT3_Δ250 (Mus musculus, UniProt Q3LS21); experiment: Whole-cell patch clamp, C-terminally truncated mouse TASK-3; assay type: cell-based
T10 construct: Removal of the carboxy terminal of murTASK‐3 (murT3) attenuates doxapram effect further; expressed in transfected cells; host or cells: tsA201 (modified HEK293), transient transfection
From the text: as §1, §9
as §3, with “kHz. […]” for “kHz.”

[5] = molecular target: T11, murTASK-3/murTASK-1 heterodimer channels (Mus musculus, UniProt O35111+Q3LS21); experiment: Whole-cell patch clamp, forced heterodimer murTASK-3/murTASK-1; assay type: cell-based
T11 construct: expressed in transfected cells; host or cells: tsA201 (modified HEK293), transient transfection
Experimental: as §1, §2, §3, §4

TASK-3_L239D = molecular target: T12, TASK-3_L239D (Homo sapiens, UniProt Q9NPC2, L239D); experiment: Whole-cell patch clamp, human TASK-3 pore mutant L239D; assay type: cell-based; settings: 10 µM (Figure 6C); read-out: percentage inhibition of TASK-3_L239D
T12 construct: expressed in transfected cells; host or cells: tsA201 (modified HEK293), transient transfection
T12 sequence (Q9NPC2 1-374 L239D): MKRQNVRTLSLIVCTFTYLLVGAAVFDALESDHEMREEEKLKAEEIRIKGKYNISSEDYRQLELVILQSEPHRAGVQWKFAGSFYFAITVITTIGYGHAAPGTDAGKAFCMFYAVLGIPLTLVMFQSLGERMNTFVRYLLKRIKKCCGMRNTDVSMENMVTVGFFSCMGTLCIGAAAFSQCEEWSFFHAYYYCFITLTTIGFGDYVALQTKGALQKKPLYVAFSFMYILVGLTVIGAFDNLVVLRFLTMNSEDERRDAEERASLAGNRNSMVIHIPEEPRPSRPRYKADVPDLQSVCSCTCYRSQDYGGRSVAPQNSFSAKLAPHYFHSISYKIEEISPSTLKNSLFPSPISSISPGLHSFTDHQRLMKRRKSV
From the text: as §1, §9
as §3, with “kHz. […]” for “kHz.”

TASK-3_L122D = molecular target: T13, TASK-3_L122D (Homo sapiens, UniProt Q9NPC2, L122D); experiment: Whole-cell patch clamp, human TASK-3 pore mutant L122D; assay type: cell-based
T13 construct: expressed in transfected cells; host or cells: tsA201 (modified HEK293), transient transfection
From the text: as §1, §9
as §3, with “kHz. […]” for “kHz.”

[6] = concentration-response 0.3-100 µM

T2 sequence (O35111 whole entry): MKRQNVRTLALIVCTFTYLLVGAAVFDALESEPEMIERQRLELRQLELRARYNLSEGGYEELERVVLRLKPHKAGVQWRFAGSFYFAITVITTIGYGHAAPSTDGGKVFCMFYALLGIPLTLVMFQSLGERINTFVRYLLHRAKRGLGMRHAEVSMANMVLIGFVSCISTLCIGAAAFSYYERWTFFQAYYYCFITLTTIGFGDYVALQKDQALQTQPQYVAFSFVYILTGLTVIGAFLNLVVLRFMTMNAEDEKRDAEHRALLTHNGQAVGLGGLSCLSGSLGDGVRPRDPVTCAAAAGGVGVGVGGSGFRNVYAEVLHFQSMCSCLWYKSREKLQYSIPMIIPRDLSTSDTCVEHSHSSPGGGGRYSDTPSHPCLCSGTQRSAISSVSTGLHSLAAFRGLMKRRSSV
T7 sequence (Q9NPC2 whole entry): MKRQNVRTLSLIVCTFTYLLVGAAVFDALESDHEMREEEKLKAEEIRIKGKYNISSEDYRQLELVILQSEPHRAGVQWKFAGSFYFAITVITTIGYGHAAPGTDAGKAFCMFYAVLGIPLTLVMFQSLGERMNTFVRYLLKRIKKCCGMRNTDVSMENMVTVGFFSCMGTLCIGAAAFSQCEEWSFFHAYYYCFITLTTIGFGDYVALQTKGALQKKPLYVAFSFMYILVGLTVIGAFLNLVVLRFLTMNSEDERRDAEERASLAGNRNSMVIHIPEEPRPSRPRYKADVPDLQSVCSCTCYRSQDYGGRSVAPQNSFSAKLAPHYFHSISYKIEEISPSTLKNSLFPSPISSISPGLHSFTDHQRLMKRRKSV
T6 sequence (Q3LS21 whole entry): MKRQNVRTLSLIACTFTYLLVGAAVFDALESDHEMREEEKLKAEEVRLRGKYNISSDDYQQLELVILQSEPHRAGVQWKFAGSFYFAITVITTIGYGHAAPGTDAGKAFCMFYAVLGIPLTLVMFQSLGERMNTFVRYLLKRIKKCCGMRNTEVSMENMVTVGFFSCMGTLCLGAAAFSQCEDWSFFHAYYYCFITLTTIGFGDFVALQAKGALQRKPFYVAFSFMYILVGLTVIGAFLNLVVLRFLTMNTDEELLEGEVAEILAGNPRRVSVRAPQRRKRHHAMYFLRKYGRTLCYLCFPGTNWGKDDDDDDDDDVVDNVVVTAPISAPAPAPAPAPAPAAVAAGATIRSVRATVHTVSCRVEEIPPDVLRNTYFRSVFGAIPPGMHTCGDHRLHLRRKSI
T5 sequence (O14649 whole entry): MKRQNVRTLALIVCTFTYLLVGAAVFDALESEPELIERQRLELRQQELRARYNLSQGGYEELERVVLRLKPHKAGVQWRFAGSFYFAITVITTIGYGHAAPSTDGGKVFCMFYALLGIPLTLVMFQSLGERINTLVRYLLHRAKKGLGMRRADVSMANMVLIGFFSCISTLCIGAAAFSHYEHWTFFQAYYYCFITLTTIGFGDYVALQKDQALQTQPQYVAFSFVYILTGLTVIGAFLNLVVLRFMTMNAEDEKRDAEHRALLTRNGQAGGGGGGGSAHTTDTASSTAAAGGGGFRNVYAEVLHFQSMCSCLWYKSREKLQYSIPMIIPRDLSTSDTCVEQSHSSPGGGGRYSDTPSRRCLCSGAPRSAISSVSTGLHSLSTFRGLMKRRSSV
T13 sequence (Q9NPC2 whole entry L122D): as the sequence (Q9NPC2 whole entry) above, with L122D counted along it
T9 sequence (O35111 whole entry): as the sequence (O35111 whole entry) above
T9 sequence (Q3LS21 whole entry): as the sequence (Q3LS21 whole entry) above
T8 sequence (Q9NPC2 whole entry G236D): as the sequence (Q9NPC2 whole entry) above, with G236D counted along it
T11 sequence (Q3LS21 whole entry): as the sequence (Q3LS21 whole entry) above
T11 sequence (O35111 whole entry): as the sequence (O35111 whole entry) above
T4 sequence (Q9NPC2 1-249 limits assumed, stated change not applied): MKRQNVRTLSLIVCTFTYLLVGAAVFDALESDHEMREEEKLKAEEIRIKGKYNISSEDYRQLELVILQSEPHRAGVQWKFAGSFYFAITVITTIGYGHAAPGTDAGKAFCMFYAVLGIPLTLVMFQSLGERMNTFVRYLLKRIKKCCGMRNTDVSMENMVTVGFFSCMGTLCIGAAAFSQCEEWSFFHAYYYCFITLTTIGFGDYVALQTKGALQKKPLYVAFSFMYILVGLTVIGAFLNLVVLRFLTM
T3 sequence (Q9NPC2 whole entry V242D): as the sequence (Q9NPC2 whole entry) above, with V242D counted along it
T10 sequence (Q3LS21 1-249 limits assumed, stated change not applied): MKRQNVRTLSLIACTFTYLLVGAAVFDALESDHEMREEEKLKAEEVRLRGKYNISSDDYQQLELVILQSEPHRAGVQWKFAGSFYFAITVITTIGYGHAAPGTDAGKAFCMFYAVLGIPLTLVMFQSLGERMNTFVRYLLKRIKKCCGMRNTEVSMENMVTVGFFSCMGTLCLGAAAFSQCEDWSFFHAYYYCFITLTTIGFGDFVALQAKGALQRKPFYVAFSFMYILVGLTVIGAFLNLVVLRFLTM

- inhibition at 10 µM (human TASK-2): 7%
- EC50 (murTASK-1; calculated from concentration-response curve, read-out: 50% effective concentration, murTASK-1): 1.5 µM
- inhibition at 1 µM (murTASK-1; tsA201, 1 µM, acute application, read-out: current inhibition of murTASK-1): 28%
- inhibition at 3 µM (murTASK-1; tsA201, 3 µM, acute application, read-out: current inhibition of murTASK-1): 43%
- inhibition at 10 µM (murTASK-1; tsA201, 10 µM, acute application, read-out: current inhibition of murTASK-1): 58%
- inhibition at 10 µM (TASK-3_V242D): 27%
- inhibition at 10 µM (hTASK-3_Δ250): 19%
- recovery from inhibition of TASK-1 (human TASK-1; 10 µM, washout): slow and mostly incomplete
- Hill slope, human TASK-1 (human TASK-1; [6]): 0.8
- inhibition at 10 µM (human TASK-1; tsA201, 10 µM, acute application, read-out: inhibition of human TASK-1 current): 55%
- EC50 (human TASK-1; tsA201 cells, whole-cell patch clamp, room temperature, read-out: EC50, inhibition of human TASK-1 current): 4 µM
- EC50 (murTASK-3; estimated, read-out: 50% effective concentration, murTASK-3): ≥ 100 µM
- inhibition at 10 µM (murTASK-3; tsA201, 10 µM, acute application, read-out: current inhibition of murTASK-3): 21%
- inhibition at 100 µM (murTASK-3; tsA201, 100 µM, acute application, read-out: current inhibition of murTASK-3): 56%
- inhibition of human TASK-3 current (human TASK-3; 10 µM, acute application, WT): 62%
- recovery from inhibition of TASK-3 (human TASK-3; 10 µM, washout): faster and more complete
- Hill slope, human TASK-3 (human TASK-3; [6]): 0.8
- inhibition at 10 µM (human TASK-3; tsA201, 10 µM, acute application, WT, read-out: inhibition of human TASK-3 current): 68%
- EC50 (human TASK-3; tsA201 cells, whole-cell patch clamp, room temperature, read-out: EC50, inhibition of human TASK-3 current): 2.5 µM
- inhibition at 10 µM (TASK-3_G236D): 26%
- inhibition at 10 µM [4]: 58%
- inhibition at 10 µM (murT3_Δ250): 4%
- inhibition at 10 µM [5]: 42%
- inhibition at 10 µM (TASK-3_L239D): 13%
- inhibition at 10 µM (TASK-3_L122D; 10 µM (Figure 6C), read-out: percentage inhibition of TASK-3_L122D): 6%
SMILES: CCN1CC(CCN2CCOCC2)C(c2ccccc2)(c2ccccc2)C1=O (stereo not shown) [doxapram, 1‐ethyl‐4‐(2‐morpholinoethyl)‐3,3‐diphenyl‐2‐pyrrolidinone]
- EC50 [1]: 9 µM
- EC50 [2]: 37 µM
- EC50 ([3]; cloned rat channels): 0.41 µM
- fold more potent on TASK-1 or heteromultimers of TASK-1 and TASK-3 than on TASK-3 ([3]; rat channels): 90 fold

- inhibition of human TASK-3 current (human TASK-3; 100 µM, acute application, WT): 94%
- inhibition of TASK-3_L122D (TASK-3_L122D; 100 µM): 87%
SMILES: [Cl-].[Cl-].[Zn+2] [zinc, Zinc Chloride]
